1 compound from US20020010333A1, “Use of xanthine derivatives for reducing the pathological hyperreactivity of eosinophilic granulocytes, novel xanthine compounds and process for their preparation” (Hoechst Aktiengesellschaft, priority 1994, published 2002) can be followed below.

As usually defined, the IC50 is the concentration that gives 50% inhibition. One may read the melting point as the temperature, or range, at which the solid turns liquid.

Molecules are shown by their SMILES. Converted amounts (≈) assume the structure as drawn. Read-outs that look alike come from different tables or passages of the source.

Series [1] has as its system histamine-induced contraction of isolated trachea. The series can be described thus: Anticonstrictive action against histamine-induced contraction of isolated tracheal ring chains. Further details: species or system albino guinea pigs. As to conditions: Cavia porcellus; guinea pig tracheal chain, histamine dihydrochloride 3×10^−7 g/ml, n=6. An excerpt:
(§1) The inhibitory action of the compounds of formula I on the proinflammatory early-phase mediators histamine, PAF and leukotriene D4 (LTD4) was investigated on isolated segments of the respiratory tract organs of albino guinea pigs, the inhibition of the contractions which can be caused by these mediators being used as measurement parameters.
(§2) To carry out the experiment, freshly prepared organs of male animals were used in each case. The trachea was divided into its rings, of which 5 tracheal rings in each case were linked with silk thread to give a chain, suspended under a tension of 0.5 g in an organ bath containing Tyrode solution at 37° C. through which was bubbled 95% O2/5% CO2, and contracted by addition of histamine dihydrochloride (bath concentration: 3×10^−7 g/ml) in the absence (control experiment) or in the presence of the test substances.
(§3) Each experiment comprised the parallel investigation of 6 organ preparations (n=6).
(§4) The assessment of the action of the preparation was carried out with the aid of the IC50 values, which represent that concentration in μg/ml at which the organ contraction produced in the control experiment was reduced by half.

Series [2] deals with PAF-induced contraction of isolated lung strips. The series is described as follows: Anticonstrictive action against PAF-induced contraction of isolated lung strips. Further details: species or system albino guinea pigs. To be noted: Cavia porcellus; guinea pig lung strips, PAF 10^−9 g/ml, n=6; read-out: Anticonstrictive action (IC50) PAT lung.
Excerpt: as §1, §2
(§5) The lungs were cut longitudinally into 2 to 3 strips, using which the process as described above was carried out. The tension, however, was 1 g and the contraction was induced by PAF or LTD4 at a bath concentration of 10^−9 or 10^−8 g/mi.
as §3, §4

For series [3], the system named is LTD4-induced contraction of isolated lung strips. The series can be described thus: Anticonstrictive action against LTD4-induced contraction of isolated lung strips. Further details: species or system albino guinea pigs. As to conditions: Cavia porcellus; guinea pig lung strips, LTD4 10^−8 g/ml, n=6.
Excerpt: as §1, §2, §5, §3, §4

Series [4] has as its system ovalbumin-induced asthma attack. The series is described as follows: Inhibition of the antigen-induced early-phase reaction (ovalbumin-induced bronchospasm, Konzett-Rössler) in the presensitized guinea pig. The series is classed as in vivo, albino guinea pigs. To be noted: Cavia porcellus, iv, protected = asthma reaction reduced by at least 40% relative to control; for responders at 10 mg/kg: 10 mg/kg i.v. 15 minutes before antigen; for responders at 25 mg/kg: 25 mg/kg i.v. 15 minutes before antigen. The procedure:
Albino guinea pigs of both sexes having a body weight of 180 to 220 g were sensitized on two successive days by subcutaneous administration of 1 mg of ovalbumin (0.1% strength dissolved in physiological saline solution) in each case. 20 days later, the experiment was carried out according to the method of Konzett and […] (Arch. exp. Path. und Pharmak. (1940) 195: 75). For this purpose, the animals were anesthetized with pentobarbital, artificially ventilated, treated with alcuronium chloride to exclude spontaneous respiration and divided into groups of 6 animals in each case. By means of intravenous administration of ovalbumin as an antigen in a dose of 1 mg/kg, a long-lasting asthma attack was induced as a result of an acute bronchospasm induced by mediators in the course of the asthmatic early reaction, the intensity of which was quantified by means of the contraction height in the thoracogram. The test preparations were likewise administered intravenously 15 minutes before antigen provocation. Instead of this, the animals of the control group received pure 0.9% strength saline solution. To assess the action of the preparation, the number of animals of the respective collective in which the asthma reaction was reduced by at least 40% relative to the control animals was determined.

The test system of series [5] is human eosinophilic granulocytes. The series can be described thus: Inhibition of eosinophil activation by late-phase mediators, lucigenin-dependent chemiluminescence. To be noted: 0.5 h, test substance 100 μM, human eosinophils, CL over 30 minutes. The series is classed as cell-based. An excerpt:
The inhibitory action of the xanthines of formula I on the activation ability of human eosinophilic granulocytes by means of the late-phase mediators IL-5, GM-CSF, C5a and PAF was investigated with the aid of the lucigenin-dependent chemiluminescence (CL) reaction.
For this purpose, purified eosinophils were obtained from venous human blood according to known processes (Arch. Dermatol. Res. (1987) 279: 470-477 and J. Invest. Dermatol. (1986) 86: 523-528), pretreated with the test substances at the concentration 100 μM or with pure water (positive control (A)) at 37° C. for 10 minutes and then activated with IL-5 (10^2 U/ml), GM-CSF (10^3 U/ml), C5a (10^−7 M) or PAF (10^−6 M) or treated with water for the determination of the basal activity (B). The CL reaction was monitored over the course of 30 minutes measuring at 37° C. The residual activity of the cells pretreated with the test substances was calculated according to the following formula in percent of that of the positive control: [formula]
CLX describes the activity after stimulation of the cells pretreated with the xanthines,
CLA describes the activity after stimulation of the cells pretreated with water and
CLB describes the basal activity of unstimulated cells pretreated with water.

The test system of series [6] is eosinophilic granulocytes infiltrating the peritoneal space. The series is described as follows: Antigen-induced late-phase reaction: infiltration of eosinophilic granulocytes into the peritoneal space (in vivo). Further details: species or system guinea pigs. As to conditions: 80 mg/kg daily oral for 15 weeks, human serum antigen i.p. weekly, peritoneal lavage 48 hours later; control animals 42.2 5.8%; p<0.01. How it is done: (§6) In a chronic long-term experiment on guinea pigs provoked with human serum antigen, the inhibitory action of the compounds of the formula I on the pathologically raised chemotactic infiltration of eosinophilic granulocytes into the peritoneal space (in vivo) and their functional state (ex vivo) was investigated. The animals of the preparation group (n=6) were treated with the test substance at a daily oral dose of 80 mg/kg for 15 weeks, while the animals of the control group (n=6) received the vehicle (carboxymethylcellulose). After the third week of treatment, all 12 animals were provoked by weekly intraperitoneal administration of 1 ml of human serum antigen and 48 hours later in each case subjected to a peritoneal lavage with 50 ml of 5% strength glucose solution in which the number of infiltrated eosinophils and, after their isolation on discontinuous Percoll density gradients (purity >95%; V ability >98%), the reactivity to PAF and C5a were determined in a comparison between the two animal collectives by flow cytometry with the aid of actin polymerization and by means of the Boyden chamber technique.

Series [7] relates to eosinophilic granulocytes. The series can be described thus: Antigen-induced late-phase reaction: ex vivo chemotactic migration of eosinophils (Boyden chamber technique). The series is classed as in vivo, guinea pigs. To be noted: eosinophils of animals treated with 80 mg/kg daily oral, compared with control animals, p<0.05. The procedure: as §6
The test system of series [8] is eosinophilic granulocytes. The series is described as follows: Antigen-induced late-phase reaction: ex vivo actin polymerization of eosinophils (flow cytometry). The series is classed as in vivo, guinea pigs. To be noted: PAF 10 nM, eosinophils of animals treated with 80 mg/kg daily oral. How it is done: as §6
[9] abbreviates: read-out: Protected animals after i.v. administration, % proportion.
The mark [10] stands for this setting: read-out: Protected animals after i.v. administration, number (converted).

For the compound `Cn1c(=O)n(CCCCC(C)(C)O)c(=O)c2[nH]cnc21` [Example 7, 1-(5-Hydroxy-5-methylhexyl)-3-methylxanthine], the melting point is 192 to 193 °C. In addition, in series [1], the IC50 lay within 10 to 30 µg/mL (≈ 35.7 to 107 µM). In series [2], the half-maximal inhibitory concentration (IC50) was 10 to 30 µg/mL (≈ 35.7 to 107 µM). In series [3], this compound yielded an IC50 of 10 to 30 µg/mL (≈ 35.7 to 107 µM). Besides, in series [4] (setting [9]), the responders at 10 mg/kg amounted to 33% and the responders at 25 mg/kg came out at 80%. For the same compound, in series [4] (setting [10]), the responders at 10 mg/kg is 33.3% and the responders at 25 mg/kg was 80%. For the same compound, the activity at 100 µM in [5] (C5a 10^−7 M, read-out: Residual activity in % of the positive control A after stimulation with C5a) came out at 19%. Further, the activity at 100 µM in series [5] (GM-CSF 10^3 U/ml, read-out: Residual activity in % of the positive control A after stimulation with GM-CSF) amounted to 63%. For the same compound, in [5] (IL-5 10^2 U/ml, read-out: Residual activity in % of the positive control A after stimulation with IL-5), the activity at 100 µM was 42%. Also, the activity at 100 µM in series [5] (PAF 10^−6 M, read-out: Residual activity in % of the positive control A after stimulation with PAF) stood at 17%. The “Number of eosinophils which migrated into the peritoneal space” value in [6] is reported as 34.9%. In series [7], the “Chemotactic migration of eosinophils induced by C5a” value is listed as “significant reduction” and the “Chemotactic migration of eosinophils induced by PAF” value was “significant reduction”. The “Initial phase (<10s) of actin polymerization induced by PAF” value in series [8] is recorded as “significantly decreased”.
